Several values for one entry are separate records, joined by “and”; a condition that tells them apart may be missing. Identical values can stand only once. Inconclusive results and toxic doses are left out. No stated cut-off is given here; in the data, active means T/C of 150% or more; inactive means T/C below 125%.
Tested on: L1210 leukemia ip in BDF1 mice, survival T/C
Assay: NCI In Vivo Anticancer Drug Screen. Data for tumor model L1210 Leukemia (intraperitoneal) in B6D2F1 (BDF1) mice
Settings: endpoint: mean survival time, higher = longer survival
Procedure, shortened: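 Antitumor effect is assessed in tumor-bearing animals. Survival in the compound arm is compared with a vehicle-dosed control arm and expressed as their quotient.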

[1] = dose: 100.0 mg/kg/injection, schedule: Q01DX001 (ip), vehicle: saline with Tween-80
[2] = dose: 200.0 mg/kg/injection, schedule: Q01DX001 (ip), vehicle: saline with Tween-80
[3] = dose: 400.0 mg/kg/injection, schedule: Q01DX001 (ip), vehicle: saline with Tween-80
[4] = dose: 100.0 mg/kg/injection, schedule: Q01DX001 (ip), vehicle: Klucel (hydroxypropylcellulose) (HPC)
[5] = dose: 200.0 mg/kg/injection, schedule: Q01DX001 (ip), vehicle: Klucel (hydroxypropylcellulose) (HPC)
[6] = dose: 100.0 mg/kg/injection, schedule: Q01DX009 (ip), vehicle: Klucel (hydroxypropylcellulose) (HPC)
[7] = dose: 100.0 mg/kg/injection, schedule: Q04DX003 (ip), vehicle: Klucel (hydroxypropylcellulose) (HPC)
[8] = dose: 200.0 mg/kg/injection, schedule: Q01DX009 (ip), vehicle: Klucel (hydroxypropylcellulose) (HPC)
[9] = dose: 200.0 mg/kg/injection, schedule: Q04DX003 (ip), vehicle: Klucel (hydroxypropylcellulose) (HPC)
[10] = dose: 400.0 mg/kg/injection, schedule: Q04DX003 (ip), vehicle: Klucel (hydroxypropylcellulose) (HPC)
[11] = dose: 100.0 mg/kg/injection, schedule: Q01DX001 (ip), vehicle: saline
[12] = dose: 200.0 mg/kg/injection, schedule: Q01DX001 (ip), vehicle: saline
[13] = dose: 400.0 mg/kg/injection, schedule: Q01DX001 (ip), vehicle: saline
[14] = dose: 50.0 mg/kg/injection, schedule: Q01DX001 (ip), vehicle: saline
[15] = dose: 100.0 mg/kg/injection, schedule: Q04DX003 (ip), vehicle: saline with Tween-80
[16] = dose: 200.0 mg/kg/injection, schedule: Q04DX003 (ip), vehicle: saline with Tween-80
[17] = dose: 400.0 mg/kg/injection, schedule: Q04DX003 (ip), vehicle: saline with Tween-80
[18] = dose: 100.0 mg/kg/injection, schedule: Q01DX009 (ip), vehicle: saline with Tween-80
[19] = dose: 200.0 mg/kg/injection, schedule: Q01DX009 (ip), vehicle: saline with Tween-80
[20] = dose: 100.0 mg/kg/injection, schedule: Q04DX002 (ip), vehicle: saline with Tween-80

Measured: T/C

CCOC(=O)C(=O)Nc1ccc(Cl)cc1
inactive: [1] 96 % of control | [2] 96 % of control | [3] 95 % of control

CCCCCCCCCCCSCCSCCSCCCCCCCCCCC
inactive: [4] 88 % of control | [5] 95 % of control | dose: 400.0 mg/kg/injection, schedule: Q01DX001 (ip), vehicle: Klucel (hydroxypropylcellulose) (HPC) 90 % of control

CC(C)(C)C(=O)NCc1ccccc1
inactive: [1] 100 % of control | [2] 96 % of control | [3] 96 % of control

CC(=O)NCCCOc1ccc([N+](=O)[O-])cc1Cl
inactive: [4] 100 % of control | [6] 102 % of control | [7] 101 % of control | [5] 101 % of control | [8] 110 % of control and 112 % of control | [9] 113 % of control | [10] 103 % of control

c1cc[n+](Cc2nc3ccccc3[nH]2)cc1
inactive: [11] 102 % of control and 95 % of control

CC(C)OC(=O)C(C)(OC(=O)c1ccccc1)c1ccccc1 (stereo not drawn)
inactive: [11] 94 % of control | [12] 91 % of control | [13] 88 % of control

CCOc1ccc(/C=N\NC(=O)CCCC(=O)N/N=C/c2ccc(OCC)c(OCC)c2)cc1OCC
inactive: [14] 103 % of control | [11] 95 % of control | [12] 87 % of control

COc1ccc(C(C)c2ccc(OC)cc2)cc1
inactive: [15] 93 % of control | [16] 95 % of control | [17] 91 % of control

CNC(=O)Oc1ccc(/C=N/NC(=O)c2ccncc2)cc1OC
inactive: [6] 97 % of control | [8] 97 % of control

CN(C)P(N(C)C)N(C)C
inactive: [14] 104 % of control | [11] 95 % of control | [12] 93 % of control | [13] 101 % of control

CS(=O)(=O)c1ccc(Br)cc1
inactive: [18] 103 % of control | [15] 90 % of control | [19] 102 % of control | [16] 98 % of control | dose: 400.0 mg/kg/injection, schedule: Q01DX009 (ip), vehicle: saline with Tween-80 102 % of control | [17] 96 % of control

Cc1cc(C)c(N(CC(=O)O)S(=O)(=O)c2ccccc2)c(C)c1Cl
inactive: dose: 50.0 mg/kg/injection, schedule: Q01DX001 (ip), vehicle: Klucel (hydroxypropylcellulose) (HPC) 100 % of control | [4] 86 % of control | [5] 91 % of control

CCN(/C=C1\CCOC1=O)CC
inactive: dose: 100.0 mg/kg/injection, schedule: Q04DX002 (ip), vehicle: saline 101 % of control | dose: 200.0 mg/kg/injection, schedule: Q04DX002 (ip), vehicle: saline 97 % of control

COc1ccccc1NC(=O)Oc1ccc(-c2ccccc2)cc1Br
inactive: [6] 92 % of control | [7] 97 % of control | [8] 97 % of control | [9] 95 % of control | dose: 400.0 mg/kg/injection, schedule: Q01DX009 (ip), vehicle: Klucel (hydroxypropylcellulose) (HPC) 101 % of control | [10] 93 % of control

CCCCCCCCCCC[As](=O)(O)CCCCCCCCCCC
inactive: [14] 103 % of control | [11] 97 % of control | [12] 103 % of control | [13] 101 % of control

CC(=O)N(Cl)c1ccc(Cl)cc1Cl
inactive: dose: 100.0 mg/kg/injection, schedule: Q04DX002 (ip), vehicle: Klucel (hydroxypropylcellulose) (HPC) 100 % of control | dose: 200.0 mg/kg/injection, schedule: Q04DX002 (ip), vehicle: Klucel (hydroxypropylcellulose) (HPC) 98 % of control | dose: 400.0 mg/kg/injection, schedule: Q04DX002 (ip), vehicle: Klucel (hydroxypropylcellulose) (HPC) 91 % of control

O=C(/C=C(/NC1CCCCC1)c1ccccc1)c1ccccc1
inactive: [7] 98 % of control | [9] 102 % of control | [10] 100 % of control

C[As](C)Sc1ccnc(S[As](C)C)n1
inactive: [18] 102 % of control | [15] 96 % of control | [19] 107 % of control | [16] 96 % of control

Cc1ccc(Nc2ccc(O)c3c2C(=O)c2ccccc2C3=O)c(Br)c1
inactive: dose: 75.0 mg/kg/injection, schedule: Q01DX001 (ip), vehicle: steriod suspending solution 96 % of control | dose: 150.0 mg/kg/injection, schedule: Q01DX001 (ip), vehicle: steriod suspending solution 100 % of control | dose: 300.0 mg/kg/injection, schedule: Q01DX001 (ip), vehicle: steriod suspending solution 93 % of control

CN1CCc2[nH]c3ccccc3c2C1
inactive: dose: 75.0 mg/kg/injection, schedule: Q04DX003 (ip), vehicle: Klucel (hydroxypropylcellulose) (HPC) 93 % of control | dose: 150.0 mg/kg/injection, schedule: Q04DX003 (ip), vehicle: Klucel (hydroxypropylcellulose) (HPC) 93 % of control

CCOP(=O)(CSc1ccccc1)OCC
inactive: dose: 25.0 mg/kg/injection, schedule: Q01DX009 (ip), vehicle: saline with Tween-80 93 % of control | dose: 25.0 mg/kg/injection, schedule: Q04DX002 (ip), vehicle: saline with Tween-80 107 % of control | dose: 50.0 mg/kg/injection, schedule: Q01DX009 (ip), vehicle: saline with Tween-80 100 % of control | dose: 50.0 mg/kg/injection, schedule: Q04DX002 (ip), vehicle: saline with Tween-80 107 % of control | [20] 86 % of control

CCOC(=O)C1CCC/C1=N\N=C(N)N (stereo not drawn) (tested in a mixture with another compound)
inactive: dose: 15.0 mg/kg/injection, schedule: Q01DX Z (ip), vehicle: methylcellulose (MC) 95 % of control | dose: 30.0 mg/kg/injection, schedule: Q01DX Z (ip), vehicle: methylcellulose (MC) 102 % of control | dose: 60.0 mg/kg/injection, schedule: Q01DX Z (ip), vehicle: methylcellulose (MC) 104 % of control | dose: 60.0 mg/kg/injection, schedule: Q01DX Z (oral), vehicle: methylcellulose (MC) 86 % of control | dose: 120.0 mg/kg/injection, schedule: Q01DX Z (ip), vehicle: methylcellulose (MC) 97 % of control | dose: 120.0 mg/kg/injection, schedule: Q01DX Z (oral), vehicle: methylcellulose (MC) 94 % of control | dose: 240.0 mg/kg/injection, schedule: Q01DX Z (oral), vehicle: methylcellulose (MC) 92 % of control

C/C(=N\N=C(/C)c1ccc([N+](=O)[O-])cc1)c1ccc([N+](=O)[O-])cc1
inactive: [20] 98 % of control | dose: 200.0 mg/kg/injection, schedule: Q04DX002 (ip), vehicle: saline with Tween-80 103 % of control | dose: 400.0 mg/kg/injection, schedule: Q04DX002 (ip), vehicle: saline with Tween-80 103 % of control

CCCCOCCCO
inactive: dose: 100.0 mg/kg/injection, schedule: Q01DX009 (ip), vehicle: saline 91 % of control | dose: 200.0 mg/kg/injection, schedule: Q01DX009 (ip), vehicle: saline 92 % of control | dose: 400.0 mg/kg/injection, schedule: Q01DX009 (ip), vehicle: saline 95 % of control

O=C(O)/C=C\c1cn(C2OC(CO)C(O)C(O)C2O)c2ccccc12 (stereo not drawn)
inactive: dose: 60.0 mg/kg/injection, schedule: Q01DX001 (ip), vehicle: sodium bicarbonate 105 % of control | dose: 120.0 mg/kg/injection, schedule: Q01DX001 (ip), vehicle: sodium bicarbonate 97 % of control

— PubChem BioAssay AID248 (DTP/NCI, 2004)
